For test [1], the system named is Influenza A H9N2 virus neuraminidase. Kind of test: Inhibition of Influenza A H9N2 virus neuraminidase activity after 2 hrs by spectrofluorometry.
Test [2] deals with wild type H1N1 swine influenza virus neuraminidase. Kind of test: Inhibition of wild type H1N1 swine influenza virus neuraminidase activity expressed in HEK293T cells after 2 hrs by spectrofluorometry.

As a reminder, the IC50 is the point on the concentration scale where inhibition reaches its midpoint. Turning to `O=C(C=Cc1ccc(O)cc1)c1ccc(O)cc1O`, the IC50 in test [1] was found to be 37.8 µM; in test [2], 13.6 µM.

For the origin of these results see BindingDB's records for doi:10.1016/j.bmcl.2010.11.016 (Chosun University, 2011).
